The source of these data is US11058695B2, “Inhibitor of carbapenem-hydrolyzing class D beta-lactamases” (MYONGJI UNIVERSITY INDUSTRY AND ACADEMIA COOPERATION …, priority 2019, dated 2021).

Read-outs that look alike come from different tables or passages of the source.

One may read the IC50 as the concentration at which inhibition is half-maximal.

Assay [1] addresses OXA-229 (Acinetobacter bereziniae, UniProt I6S7G0). The assay can be described thus: CHDL enzyme inhibition assay with nitrocefin. The assay is classed as biochemical. The settings on record: OXA-229 142 pM, 100 μM nitrocefin, 5 minute pre-incubation; read-out: IC50 against OXA-229. As for the experimental part:
(§1) The screened 7 compounds were dissolved in 100% DMSO at 10 mM. More diluted stocks were prepared as necessary. OXA-48 activity was determined by monitoring the change of absorbance at 482 nm using the characteristic molecular extinction coefficient (Δε482=15,900 M^−1 cm^−1) of nitrocefin (Oxoid, Hampshire, UK) by a Shimazu UV-1650PC spectrophotometer. Up to 5% DMSO, no influence on the enzyme activity of OXA-48 was observed. The assays were conducted in 10 mM MES (pH 6.8) containing OXA-48 (103 pM), 50 mM NaHCO3, and 20 μg/mL bovine serum albumin. After 5 min of pre-incubation of the purified OXA-48 and each inhibitor at 30° C., the enzymatic reaction was started by adding nitrocefin (100 μM). Residual velocities were determined after 5 minutes. The first 120 s of each reaction was used to measure initial rates. Data were evaluated using Microsoft Excel. Concentration-dependent inhibition of OXA-48 was measured using different concentrations of seven compounds resulting from two-fold dilution series. Reaction progress at every concentration of seven compounds was measured in triplicates. IC50 values were calculated using 4-parameter log fits using XL Fit curve fitting software (www.idbs.com) for Excel using the following equation:
(§2) [formula] where y is the remaining enzyme activity (in %) and x is the corresponding concentration. The fitted IC50 parameter is defined as the concentration giving a response half way between the fitted top (B) and bottom (A) of the curve.
(§3) To investigate the inhibitory effects of the novel inhibitor (PLPBA) against eight CHDLs belonging to six clinically-important CHDL subgroups(member of OXA-23 subgroup: OXA-23; member of OXA-24/40 subgroup: OXA-24/40; member of OXA-48 subgroup: OXA-48; members of OXA-51 subgroup: OXA-51 and OXA-109; member of OXA-58 subgroup: OXA-97; member of OXA-143 subgroup: OXA-143) and five CHDLs belonging to four emerging CHDL subgroups (member of OXA-211 subgroup: OXA-211; members of OXA-229 subgroup: OXA-229 and OXA-418; member of OXA-210 subgroup: OXA-210; and member of OXA-240 subgroup: OXA-240), the IC50 values for them were determined (Table 3). PLPBA was dissolved in 100% DMSO at 10 mM. More diluted stocks were prepared as necessary. Activities of CHDLs were determined by monitoring the change of absorbance at 482 nm. Up to 5% DMSO, no influence on the enzyme activities of CHDLs was observed. Each enzyme (OXA-23, 418 pM; OXA-24/40, 134 pM; OXA-48, 103 pM; OXA-51, 184 nM; OXA-97, 178 pM; OXA-109, 168 nM; OXA-143, 96 pM; OXA-210, 179 pM; OXA-211, 701 pM; OXA-229, 142 pM; OXA-240, 383 pM; OXA-418, 158 pM) was mixed with 100 μM nitrocefin after a 5 minute pre-incubation with PLPBA. The first 120 s of each reaction was used to measure initial rates. Data were evaluated using Microsoft Excel. Reaction progress at every concentration of PLPBA was measured in triplicates.

Assay [2] has as its target OXA-51 (Acinetobacter baumannii, UniProt Q5QT35). The assay can be described thus: CHDL enzyme inhibition assay with nitrocefin. The assay is classed as biochemical. The settings on record: OXA-51 184 nM, 100 μM nitrocefin, 5 minute pre-incubation; read-out: IC50 against OXA-51. As for the experimental part:
as §1, §2, §3

Assay [3] has as its target OXA-143 (Acinetobacter baumannii, UniProt D0UHC8). The assay can be described thus: CHDL enzyme inhibition assay with nitrocefin. The assay is classed as biochemical. The settings on record: OXA-143 96 pM, 100 μM nitrocefin, 5 minute pre-incubation; read-out: IC50 against OXA-143. As to the method: as §1, §2, §3
Assay [4] has as its target OXA-211 (Acinetobacter johnsonii, UniProt G9JKV7). The assay can be described thus: CHDL enzyme inhibition assay with nitrocefin. The assay is classed as biochemical. The settings on record: OXA-211 701 pM, 100 μM nitrocefin, 5 minute pre-incubation; read-out: IC50 against OXA-211. As to the method:
as §1, §2, §3

Assay [5] concerns the target OXA-109 (Acinetobacter baumannii, UniProt A8JZR7). The assay can be described thus: CHDL enzyme inhibition assay with nitrocefin. The assay is classed as biochemical. The settings on record: OXA-109 168 nM, 100 μM nitrocefin, 5 minute pre-incubation; read-out: IC50 against OXA-109. As for the experimental part: as §1, §2, §3
The target of assay [6] is OXA-97 (Acinetobacter baumannii, UniProt A5Y470). The assay can be described thus: CHDL enzyme inhibition assay with nitrocefin. The assay is classed as biochemical. The settings on record: OXA-97 178 pM, 100 μM nitrocefin, 5 minute pre-incubation; read-out: IC50 against OXA-97. As to the method: as §1, §2, §3
For assay [7], the target named is OXA-210 (Pseudomonas aeruginosa, UniProt F6ME16). The assay can be described thus: CHDL enzyme inhibition assay with nitrocefin. The assay is classed as biochemical. As for the experimental part:
as §1, §2, §3

Assay [8] has as its target OXA-23 (Acinetobacter baumannii, UniProt Q9L4P2). The assay can be described thus: CHDL enzyme inhibition assay with nitrocefin. Type of assay: biochemical. The settings on record: OXA-23 418 pM, 100 μM nitrocefin, 5 minute pre-incubation; read-out: IC50 against OXA-23. As to the method: as §1, §2, §3
For assay [9], the target named is OXA-24/40 (Acinetobacter baumannii, UniProt Q8RLA6). The assay can be described thus: CHDL enzyme inhibition assay with nitrocefin. Type of assay: biochemical. As to the method: as §1, §2, §3
Assay [10] concerns the target OXA-48 (Klebsiella pneumoniae, UniProt Q6XEC0). The assay can be described thus: OXA-48 enzyme inhibition assay with nitrocefin. The assay is classed as biochemical. The settings on record: OXA-48 103 pM. As to the method:
as §1
(§4) [formula] where y is the remaining enzyme activity (in %) and x is the corresponding concentration. […]

In assay [11] the target is OXA-240 (Pseudomonas aeruginosa, UniProt I6VVS5). The assay can be described thus: CHDL enzyme inhibition assay with nitrocefin. Type of assay: biochemical, P. aeruginosa. The settings on record: OXA-240 383 pM, 100 μM nitrocefin, 5 minute pre-incubation; read-out: IC50 against OXA-240. As for the experimental part: as §1, §4
Chain of OXA-240 (I6VVS5 21-266 limits assumed): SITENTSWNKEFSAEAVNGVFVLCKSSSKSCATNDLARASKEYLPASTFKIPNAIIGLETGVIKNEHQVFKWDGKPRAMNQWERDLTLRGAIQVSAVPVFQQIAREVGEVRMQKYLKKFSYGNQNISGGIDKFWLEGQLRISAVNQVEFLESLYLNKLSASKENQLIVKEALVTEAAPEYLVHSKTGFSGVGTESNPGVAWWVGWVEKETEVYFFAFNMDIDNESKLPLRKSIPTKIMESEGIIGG

Chain of OXA-48 (Q6XEC0 24-265 limits assumed, looked up): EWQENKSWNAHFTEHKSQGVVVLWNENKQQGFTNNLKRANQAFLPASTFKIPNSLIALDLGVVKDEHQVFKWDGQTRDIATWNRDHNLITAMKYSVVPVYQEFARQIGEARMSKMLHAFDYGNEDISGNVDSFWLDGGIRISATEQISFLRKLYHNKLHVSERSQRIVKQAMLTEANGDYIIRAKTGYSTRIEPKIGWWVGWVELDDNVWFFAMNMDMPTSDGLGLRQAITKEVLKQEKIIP
Chain of OXA-229 (I6S7G0 entry or part of it): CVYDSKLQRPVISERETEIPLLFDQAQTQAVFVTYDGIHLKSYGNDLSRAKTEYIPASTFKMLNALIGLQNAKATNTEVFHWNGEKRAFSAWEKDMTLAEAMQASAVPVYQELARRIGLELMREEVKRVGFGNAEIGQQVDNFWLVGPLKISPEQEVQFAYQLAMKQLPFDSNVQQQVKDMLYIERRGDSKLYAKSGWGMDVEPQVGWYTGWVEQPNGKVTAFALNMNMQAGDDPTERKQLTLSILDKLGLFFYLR
Chain of OXA-23 (Q9L4P2 31-273 limits assumed): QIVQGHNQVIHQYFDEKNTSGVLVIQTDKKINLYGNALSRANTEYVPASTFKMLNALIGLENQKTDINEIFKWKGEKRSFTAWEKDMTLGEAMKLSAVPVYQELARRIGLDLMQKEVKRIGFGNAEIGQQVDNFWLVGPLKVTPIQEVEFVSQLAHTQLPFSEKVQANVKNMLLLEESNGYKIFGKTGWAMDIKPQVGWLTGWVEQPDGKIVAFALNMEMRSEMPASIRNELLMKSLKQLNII
Chain of OXA-143 (D0UHC8 entry or part of it): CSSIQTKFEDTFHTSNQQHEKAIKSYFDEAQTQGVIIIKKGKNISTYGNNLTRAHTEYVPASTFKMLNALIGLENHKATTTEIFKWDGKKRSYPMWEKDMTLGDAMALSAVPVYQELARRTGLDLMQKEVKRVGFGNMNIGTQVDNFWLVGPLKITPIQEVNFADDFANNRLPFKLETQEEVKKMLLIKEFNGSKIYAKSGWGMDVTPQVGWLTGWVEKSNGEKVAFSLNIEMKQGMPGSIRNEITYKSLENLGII
Chain of OXA-97 (A5Y470 entry or part of it): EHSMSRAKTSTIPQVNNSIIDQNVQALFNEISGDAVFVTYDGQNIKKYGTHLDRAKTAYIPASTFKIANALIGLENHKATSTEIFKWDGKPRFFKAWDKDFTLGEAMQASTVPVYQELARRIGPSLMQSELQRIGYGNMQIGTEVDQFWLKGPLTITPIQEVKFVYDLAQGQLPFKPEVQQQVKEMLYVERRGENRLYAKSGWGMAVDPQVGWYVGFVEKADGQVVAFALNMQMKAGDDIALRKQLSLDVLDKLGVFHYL
Chain of OXA-109 (A8JZR7 entry or part of it): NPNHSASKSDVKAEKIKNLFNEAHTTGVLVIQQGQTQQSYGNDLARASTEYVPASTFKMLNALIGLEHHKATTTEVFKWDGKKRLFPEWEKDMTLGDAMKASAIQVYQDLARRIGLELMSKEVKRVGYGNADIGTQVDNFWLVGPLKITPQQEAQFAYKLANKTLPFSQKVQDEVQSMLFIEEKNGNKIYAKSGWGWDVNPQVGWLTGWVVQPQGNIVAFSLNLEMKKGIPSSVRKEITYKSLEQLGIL
Chain of OXA-24/40 (Q8RLA6 entry or part of it): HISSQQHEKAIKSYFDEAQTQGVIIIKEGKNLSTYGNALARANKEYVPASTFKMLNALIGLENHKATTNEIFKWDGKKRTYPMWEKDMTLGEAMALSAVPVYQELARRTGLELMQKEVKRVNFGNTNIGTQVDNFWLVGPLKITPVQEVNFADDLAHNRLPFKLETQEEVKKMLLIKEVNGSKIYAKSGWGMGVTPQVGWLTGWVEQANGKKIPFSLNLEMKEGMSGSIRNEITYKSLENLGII
Chain of OXA-51 (Q5QT35 entry or part of it): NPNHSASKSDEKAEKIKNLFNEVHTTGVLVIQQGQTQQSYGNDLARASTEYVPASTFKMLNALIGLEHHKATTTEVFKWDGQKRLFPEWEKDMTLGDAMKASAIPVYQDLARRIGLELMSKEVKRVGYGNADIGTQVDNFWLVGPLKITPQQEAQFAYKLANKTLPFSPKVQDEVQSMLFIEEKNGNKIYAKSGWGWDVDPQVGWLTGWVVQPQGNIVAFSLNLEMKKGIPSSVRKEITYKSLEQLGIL
Chain of OXA-210 (F6ME16 entry or part of it): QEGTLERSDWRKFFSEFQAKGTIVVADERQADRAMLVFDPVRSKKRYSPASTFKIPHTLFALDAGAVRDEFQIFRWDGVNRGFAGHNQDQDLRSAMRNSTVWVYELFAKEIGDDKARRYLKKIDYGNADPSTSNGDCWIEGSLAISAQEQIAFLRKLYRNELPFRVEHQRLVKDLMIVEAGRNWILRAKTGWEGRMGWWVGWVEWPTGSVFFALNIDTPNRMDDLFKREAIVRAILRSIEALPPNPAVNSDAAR
Chain of OXA-211 (G9JKV7 entry or part of it): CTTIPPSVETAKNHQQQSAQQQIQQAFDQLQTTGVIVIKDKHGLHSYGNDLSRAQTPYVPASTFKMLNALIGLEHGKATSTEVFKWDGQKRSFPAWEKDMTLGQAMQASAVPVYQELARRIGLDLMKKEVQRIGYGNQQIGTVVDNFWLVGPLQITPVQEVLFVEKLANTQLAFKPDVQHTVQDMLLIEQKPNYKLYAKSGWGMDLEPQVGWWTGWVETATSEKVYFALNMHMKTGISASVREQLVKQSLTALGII

Take `OB(O)c1cccc(OCCc2ccccc2)c1` [Compound 1, [3-(2-Phenylethoxy)phenyl]boronic Acid]: the IC50 in [1] was 171.93 ± 0.01 µM; in [2], 594.73 ± 0.01 µM; in assay [3], 91.79 ± 0.01 µM; in assay [4] it was 238.51 ± 0.01 µM; in [5] it was 864.59 ± 0.02 µM; in assay [6] it was 189.02 ± 0.01 µM. For the same molecule, the IC50 was 218.79 ± 0.02 µM in assay [7]; 275.54 ± 0.02 µM in assay [8]; 384.73 ± 0.02 µM in [9]; 155 µM in [10] (nitrocefin 100 μM, 5 min pre-incubation at 30° C., 10 mM MES pH 6.8, read-out: IC50 values on OXA-48 of the screened compounds); 154.84 ± 0.02 µM in assay [10] (Table 3, 100 μM nitrocefin, 5 minute pre-incubation, read-out: IC50 against OXA-48); 218.59 ± 0.03 µM in assay [11].
